Target: T1, human vascular endothelial growth factor receptor 2 (VEGF-R2) (Homo sapiens, UniProt P35968, DEL940-989/E990V)
T1 construct: VEGF-R2D50 contains residues 806-939 and 990-1171; made in house; host or cells: baculovirus/insect cell system
Test: VEGF-R2 coupled spectrophotometric assay (FLVK, unphosphorylated VEGF-R2D50)
Format: biochemical
Conditions: unphosphorylated VEGF-R2D50 (FLVK)
Text: This construct determines the ability of a test compound to inhibit tyrosine kinase activity. A construct (VEGF-R2D50) of the cytosolic domain of human vascular endothelial growth factor receptor 2 (VEGF-R2) lacking the 50 central residues of the 68 residues of the kinase insert domain was expressed in a baculovirus/insect cell system. Of the 1356 residues of full-length VEGF-R2, VEGF-R2D50 contains residues 806-939 and 990-1171, and also one point mutation (E990V) within the kinase insert domain relative to wild-type VEGF-R2. Autophosphorylation of the purified construct was performed by incubation of the enzyme at a concentration of […] in the presence of 3 mM ATP and 40 mM MgCl2 in 100 mM HEPES, pH 7.5, containing 5% glycerol and 5 mM DTT, at 4° C. for 2 h. […] See Parast et al., Biochemistry, 37, 16788-16801 (1998).
VEGF-R2 Assay: Coupled Spectrophotometric (FLVK-P) Assay
The production of ADP from ATP that accompanies phosphoryl transfer was coupled to oxidation of NADH using phosphoenolpyruvate (PEP) and a system having pyruvate kinase (PK) and lactic dehydrogenase (LDH). The oxidation of NADH was monitored by following the decrease of absorbance at 340 nm (e340=6.22 cm^−1 mM^−1) using a Beckman DU 650 spectrophotometer. Assay conditions for phosphorylated VEGF-R2D50 (indicated as FLVK-P in the tables below) were the following: 1 mM PEP; […] NADH; 50 units of LDH/mL; 20 units of PK/mL; 5 mM DTT; 5.1 mM poly(E4Y1); 1 mM ATP; and 25 mM MgCl2 in 200 mM HEPES, pH 7.5. Assay conditions for unphosphorylated VEGF-R2D50 (indicated as FLVK in the tables) were the following: 1 mM PEP; […] NADH; 50 units of LDH/mL; 20 units of PK/mL; 5 mM DTT; 20 mM poly(E4Y1); 3 mM ATP; and 60 mM MgCl2 and 2 mM MnCl2 in 200 mM HEPES, pH 7.5. Assays were initiated with 5 to 40 nM of enzyme. K1 values were determined by measuring enzyme activity in the presence of varying concentrations of test compounds. The percent inhibition at 50 nM (% inhibition @ 50 nM) was determined by linear least-squares regression analysis of absorbance as a function of time. The binding inhibitions were fitted to equation as described by Morrison. The data were analyzed using Enzyme Kinetic and Kaleidagraph software.

T1 sequence (P35968 with tags, fused parts or gaps DEL940-989/E990V limits assumed): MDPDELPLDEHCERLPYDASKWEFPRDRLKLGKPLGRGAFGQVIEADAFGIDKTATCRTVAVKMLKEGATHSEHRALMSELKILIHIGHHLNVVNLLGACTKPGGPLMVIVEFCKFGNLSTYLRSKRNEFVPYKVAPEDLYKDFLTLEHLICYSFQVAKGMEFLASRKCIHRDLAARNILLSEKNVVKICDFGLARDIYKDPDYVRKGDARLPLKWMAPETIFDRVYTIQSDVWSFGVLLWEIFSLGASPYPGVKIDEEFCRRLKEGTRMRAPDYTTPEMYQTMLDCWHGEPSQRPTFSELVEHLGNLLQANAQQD

| Structure (SMILES) | Ki |
| --- | --- |
| COc1ccc2c(Oc3ccc4c(C(=O)NC[C@@H]5CCCO5)c(C)oc4c3)ccnc2c1 [Example 85, 6-[(7-methoxyquinolin-4-yl)oxy]-2-methyl-N-[(2S)-tetrahydrofuran-2-ylmethyl]-1-benzofuran-3-carboxamide] | > 10 nM |
| CNC(=O)c1c(C)oc2cc(Oc3ccnc4cc(-c5nccs5)ccc34)ccc12 [Example 30] | < 1 nM |
| Cc1sc2cc(Oc3ccnc4cc(O)ccc34)ccc2c1C(=O)NC1CCCC1 [Example 56, N-cyclopentyl-6-[(7-hydroxyquinolin-4-yl)oxy]-2-methyl-1-benzothiophene-3-carboxamide] | > 10 nM |
| CCC(O)CNC(=O)c1c(C)sc2cc(Oc3ccnc4cc(OC)ccc34)ccc12 (stereo not shown) [Example 81, N-(2-hydroxybutyl)-6-[(7-methoxyquinolin-4-yl)oxy]-2-methyl-1-benzothiophene-3-carboxamide] | > 10 nM |
| CNC(=O)c1c(C)n(C)c2cc(Oc3ccnc4cc(OCCN5CCCC5)ccc34)ccc12 [Example 78, N,1,2-trimethyl-6-{[7-(2-pyrrolidin-1-ylethoxy)quinolin-4-yl]oxy}-1H-indole-3-carboxamide] | > 10 nM |
| Cc1oc2cc(Oc3ccnc4cc(-c5ncccn5)ccc34)ccc2c1C(=O)NC1CC1 [Example 89, N-cyclopropyl-2-methyl-6-[(7-pyrimidin-2-ylquinolin-4-yl)oxy]-1-benzofuran-3-carboxamide] | < 1 nM |
| CNC(=O)c1c(C)n(C)c2cc(Oc3ccnc4cc(OC)ccc34)ccc12 [Example 75, [(7-methoxyquinolin-4-yl)oxy]-N,1,2-trimethyl-1H-indole-3-carboxamide] | > 10 nM |
| CCN1CCN(CCOc2ccc3c(Oc4ccc5c(C(=O)NC6CC6)c(C)oc5c4)ccnc3c2)CC1 [Example 94, N-cyclopropyl-2-methyl-6-{7-[2-(4-ethyl-piperazin-1-yl)-ethoxy]quinolin-4-yloxy}-1-benzofuran-3-carboxamide] | < 1 nM |
| CNC(=O)c1c(C)oc2cc(Oc3ccnc4cc(C(=O)N5CCC[C@H]5COC)ccc34)ccc12 [Example 15, 6-[(7-([(2S)-2-(methoxymethyl)pyrrolidin-1-yl]carbonyl}quinolin-4-yl)oxy]-N,2-dimethyl-1-benzofuran-3-carboxamide] | 1 to 10 nM |
| CNC(=O)c1c(C)sc2cc(Oc3ccnc4cc(C(=O)N5CCC[C@H]5COC)ccc34)ccc12 [Example 16, 6-[(7-{[(2S)-2-(methoxymethyl)pyrrolidin-1-yl]carbonyl)quinolin-4-yl)oxy]-N,2-dimethyl-1-benzothiophene-3-carboxamide] | > 10 nM |
| CNC(=O)c1c(C)sc2cc(Oc3ccnc4ccc(-c5ccncc5)cc34)ccc12 [Example 23, N,2-dimethyl-6-[(6-pyridin-4-ylquinolin-4-yl)oxy]-1-benzothiophene-3-carboxamide] | > 10 nM |
| Cc1oc2cc(Oc3ccnc4cc(OCCNC(C)(C)C)ccc34)ccc2c1C(=O)NC1CC1 [Example 98] | < 1 nM |
| CNC(=O)c1c(C)sc2cc(Oc3ccnc4cc(-c5ncccn5)ccc34)ccc12 [Example 18, N,2-dimethyl-6-[(7-pyrimidin-2-ylquinolin-4-yl)oxy]-1-benzothiophene-3-carboxamide] | > 10 nM |
| CNC(=O)n1c(C)cc2cc(Nc3ccnc4cc(-c5cccnc5)ccc34)ccc21 [Example 12, N,2-dimethyl-5-[(7-pyridin-3-ylquinolin-4-yl)amino]-1H-indole-1-carboxamide] | > 10 nM |
| CNC(=O)c1c(C)oc2cc(Oc3ccnc4ccc(-c5ccncc5)cc34)ccc12 [Example 24, N,2-dimethyl-6-[(6-pyridin-4-ylquinolin-4-yl)oxy]-1-benzofuran-3-carboxamide] | 1 to 10 nM |
| CNC(=O)c1c(C)oc2cc(Oc3ccnc4cc(C(F)(F)F)ccc34)ccc12 [Example 61, N,2-dimethyl-6-{[7-(trifluoromethyl)quinolin-4-yl]oxy}-1-benzofuran-3-carboxamide] | > 10 nM |
| COc1ccc2c(Oc3ccc4c(C(=O)NCC(C)O)c(C)sc4c3)ccnc2c1 (stereo not shown) [Example 80, N(2-hydroxypropyl)-6-[(7-methoxyquinolin-4-yl)oxy]-2-methyl-1-benzothiophene3-carboxamide] | > 10 nM |

| Structure (SMILES) | Ki |
| --- | --- |
| COc1ccc2c(Oc3ccc4c(C(=O)NCCC(C)O)c(C)sc4c3)ccnc2c1 (stereo not shown) [Example 82, N-(3-hydroxybutyl)-6-[(7-methoxyquinolin-4-yl)oxy]-2-methyl-1-benzothiophene-3-carboxamide] | > 10 nM |
| CCN(CC)CCOc1ccc2c(Oc3ccc4c(C(=O)NC5CC5)c(C)oc4c3)ccnc2c1 [Example 91, N-cyclopropyl-2-methyl-6-({7-[2-(diethylamino)ethoxy]quinolin-4-yl}oxy)-1-benzofuran-3-carboxamide] | < 1 nM |
| Cc1sc2cc(Oc3ccnc4cc(O)ccc34)ccc2c1C(=O)NCCN(C)C [Example 57, N-[2-(dimethylamino)ethyl]-6-[(7-hydroxyquinolin-4-yl)oxy]-2-methyl-1-benzothiophene-3-carboxamide] | > 10 nM |
| CNC(=O)c1c(C)sc2cc(Oc3ccnc4cc(C(F)(F)F)ccc34)ccc12 [Example 60, N,2-dimethyl-6-{[7-(trifluoromethyl)quinolin-4-yl]oxy}-1-benzothiophene-3-carboxamide] | > 10 nM |
| CNC(=O)c1c(C)n(C)c2cc(Oc3ccnc4cc(OCCN5CCOCC5)ccc34)ccc12 [Example 77, N,1,2-trimethyl-6-{[7-(2-morpholin-4-ylethoxy)quinolin-4-yl]oxy}-1H-indole-3-carboxamide] | > 10 nM |
| CCCNC(=O)c1c(C)sc2cc(Oc3ccnc4cc(O)ccc34)ccc12 [Example 55, 6-[(7-hydroxyquinolin-4-yl)oxy]-2-methyl-N-propyl-1-benzothiophene-3-carboxamide] | > 10 nM |
| COc1ccc2c(Oc3ccc4c(C(=O)NCCN(C)C)c(C)sc4c3)ccnc2c1 [Example 49, N-[2-(dimethylamino)ethyl]-6-[(7-methoxyquinolin-4-yl)oxy]-2-methyl-1-benzothiophene-3-carboxamide] | > 10 nM |
| COc1ccc2c(Oc3ccc4c(C(=O)NCc5cccnc5)c(C)sc4c3)ccnc2c1 [Example 54, 6-[(7-methoxyquinolin-4-yl)oxy]-2-methyl-N-(pyridin-3-ylmethyl)-1-benzothiophene-3-carboxamide] | > 10 nM |
| CNC(=O)c1c(C)oc2cc(Oc3ccnc4cc(-c5ccncc5)ccc34)ccc12 [Example 7, N-2-dimethyl-6-[(7-pyridin-4-ylquinolin-4-yl)oxy]-1-benzofuran-3-carboxamide] | < 1 nM |
| Cc1oc2cc(Oc3ccnc4cc(OCCBr)ccc34)ccc2c1C(=O)NC1CC1 [Example 93, 6-{[7-(2-bromoethoxy)quinolin-4-yl]oxy}-N-cyclopropyl-2-methyl-1-benzofuran-3-carboxamide] | < 1 nM |
| CNCCOc1ccc2c(Oc3ccc4c(C(=O)NC5CC5)c(C)oc4c3)ccnc2c1 [Example 90, N-cyclopropyl-2-methyl-6-({7-[2-(methylamino)ethoxy]quinolin-4-yl}oxy)-1-benzofuran-3-carboxamide] | < 1 nM |
| CNC(=O)c1c(C)n(C)c2cc(Oc3ccnc4cc(O)ccc34)ccc12 [Example 76] | > 10 nM |
| CNC(=O)c1c(C)oc2cc(Oc3ccnc4cc(OCc5ccccn5)ccc34)ccc12 [Example 33] | 1 to 10 nM |
| CNC(=O)c1c(C)sc2cc(Oc3ccnc4cc(Br)ccc34)ccc12 [Example 20, 6-[(7-bromoquinolin-4-yl)oxy]-N,2-dimethy-1-benzothiophene-3-carboxamide] | > 10 nM |
| Cc1oc2cc(Oc3ccnc4cc(OCCNC5CC5)ccc34)ccc2c1C(=O)NC1CC1 [Example 96, N-cyclopropyl-6-({7-[2-(cyclopropylamino)ethoxy]quinolin-4-yl}oxy)-2-methyl-1-benzofuran-3-carboxamide] | < 1 nM |
| COCC(C)NCCOc1ccc2c(Oc3ccc4c(C(=O)NC5CC5)c(C)oc4c3)ccnc2c1 (stereo not shown) [Example 97, N-cyclopropyl-6-[(7-{2-[(2-methoxy-1-methylethyl)amino]ethoxy}quinolin-4-yl)oxy]-2-methyl-1-benzofuran-3-carboxamide] | < 1 nM |
| COCC(C)NC(=O)c1c(C)oc2cc(Oc3ccnc4cc(OC)ccc34)ccc12 (stereo not shown) [Example 87, 6-[(7-methoxyquinolin-4-yl)oxy]-2-methyl-N-[2-methoxy-1-methyl-ethyl]-1-benzofuran-3-carboxamide] | > 10 nM |

— patent US7381824B2 (Agouron Pharmaceuticals, Inc., priority 2003, dated 2008)
